# Experimental data reported in patent US20230131899A1, “INHIBITORS OF MICROBIALLY INDUCED AMYLOID” (Axial Therapeutics, Inc., priority 2020, published 2023).
# Where two headings read alike, the source gives them in different places.
# System: CsgA gene expression (csgBAC promoter-GFP reporter) in E. coli UTI89
# Assay: In vitro live cell fluorescent reporter assay of CsgA transcription (Reporter Assay)
# Assay type: cell-based
# Conditions: Escherichia coli
# How it was run: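 Compounds at 0.14–100 μM (1% DMSO final) incubated 20 h at 27 °C in YESCA broth with UTI89 carrying a single-copy GFP reporter under the csgBAC intergenic promoter region, inoculum OD600 0.003. Fluorescence normalized to vehicle wells gave IC50 and 50%-of-vehicle concentration; OD600 reduction >10% flagged growth impact.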
# [1] = read-out: Reporter Assay Abs IC50 (activity range), median Abs IC50 in the CsgA reporter assay, class symbol
# [2] = read-out: Reporter Assay Abs IC50 (μM), median Abs IC50 in the CsgA reporter assay, N/A = maximum expression reduction is <50% of control
SMILES,IC50 [1],IC50 [2]
"O=C(O)C1CN(CCCCCO)S(=O)(=O)c2c(-c3cccc(C(F)(F)F)c3)c(Cc3cccc4ccccc34)c(NC3CCCC3)c(=O)n21 (stereo not shown) [Compound 122, 7-(cyclopentylamino)-2-(5-hydroxypentyl)-8-(naphthalen-1-ylmethyl)-6-oxo-9-(3-(trifluoromethyl)phenyl)-3,4-dihydro-2H,6H-pyrido[1,2-e][1,2,5]thiadiazine-4-carboxylic acid 1,1-dioxide]",1.3 to 4.5 µM,1.9 µM
"O=C(O)C1CSc2c(-c3cccc(C(F)(F)F)c3)c(Cc3cccc4ccccc34)cc(=O)n21 (single isomer, unassigned) [Compound 011a, 7-(naphthalen-1-ylmethyl)-5-oxo-8-(3-(trifluoromethyl)phenyl)-2,3-dihydro-5H-thiazolo[3,2-a]pyridine-3-carboxylic acid]",1.3 to 4.5 µM,4.4 µM
"O=C(O)[C@H]1CS(=O)(=O)c2c(-c3cccc(C(F)(F)F)c3)c(Cc3cccc4ccccc34)cc(=O)n21 (single isomer, unassigned) [Compound 010b, 7-(naphthalen-1-ylmethyl)-5-oxo-8-(3-(trifluoromethyl)phenyl)-2,3-dihydro-5H-thiazolo[3,2-a]pyridine-3-carboxylic acid 1,1-dioxide]",> 10 µM,58.5 µM
"CCCN1CC(C(=O)O)n2c(c(-c3cccc(C(F)(F)F)c3)c(Cc3cccc4ccccc34)c(NC3CCOCC3)c2=O)S1(=O)=O (stereo not shown) [Compound 127, 8-(naphthalen-1-ylmethyl)-6-oxo-2-propyl-7-((tetrahydro-2H-pyran-4-yl)amino)-9-(3-(trifluoromethyl)phenyl)-3,4-dihydro-2H,6H-pyrido[1,2-e][1,2,5] thiadiazine-4-carboxylic acid 1,1-dioxide]",4.6 to 10 µM,4.8 µM
"O=C(O)C1CN(CCCCO)S(=O)(=O)c2c(-c3cccc(C(F)(F)F)c3)c(Cc3cccc4ccccc34)c(NC3CCCC3)c(=O)n21 (stereo not shown) [Compound 121, 7-(cyclopentylamino)-2-(4-hydroxybutyl)-8-(naphthalen-1-ylmethyl)-6-oxo-9-(3-(trifluoromethyl)phenyl)-3,4-dihydro-2H,6H-pyrido[1,2-e][1,2,5]thiadiazine-4-carboxylic acid 1,1-dioxide]",1.3 to 4.5 µM,2 µM
"CC(C)N1CC(C(=O)O)n2c(c(-c3cccc(C(F)(F)F)c3)c(Cc3cccc4ccccc34)c(NC3CCCC3)c2=O)S1(=O)=O (stereo not shown) [Compound 123, 7-(cyclopentylamino)-2-isopropyl-8-(naphthalen-1-ylmethyl)-6-oxo-9-(3-(trifluoromethyl)phenyl)-3,4-dihydro-2H,6H-pyrido[1,2-e][1,2,5]thiadiazine-4-carboxylic acid 1,1-dioxide]",1.3 to 4.5 µM,3.3 µM
"Nc1c(Cc2cccc3ccccc23)c(-c2cccc(C(F)(F)F)c2)c2n(c1=O)C(C(=O)O)CS2(=O)=O (stereo not shown) [Compound 023, 6-amino-7-(naphthalen-1-ylmethyl)-5-oxo-8-(3-(trifluoromethyl)phenyl)-2,3-dihydro-5H-thiazolo[3,2-a]pyridine-3-carboxylic acid 1,1-dioxide]",> 10 µM,19.6 µM
"CCc1c(Cc2cccc3ccccc23)c(-c2cccc(C(F)(F)F)c2)c2n(c1=O)C(C(=O)O)CN(C1CCCCC1)S2(=O)=O (stereo not shown) [Compound 116, 2-cyclohexyl-7-ethyl-8-(naphthalen-1-ylmethyl)-6-oxo-9-(3-(trifluoromethyl)phenyl)-3,4-dihydro-2H,6H-pyrido[1,2-e][1,2,5]thiadiazine-4-carboxylic acid 1,1-dioxide]",1.3 to 4.5 µM,1.5 µM
"O=C(O)CN1CC(C(=O)O)n2c(c(-c3cccc(C(F)(F)F)c3)c(Cc3cccc4ccccc34)cc2=O)S1(=O)=O (stereo not shown) [Compound 018, 2-(carboxymethyl)-8-(naphthalen-1-ylmethyl)-6-oxo-9-(3-(trifluoromethyl)phenyl)-3,4-dihydro-2H,6H-pyrido[1,2-e][1,2,5]thiadiazine-4-carboxylic acid 1,1-dioxide]",> 10 µM,148 µM
"O=C(O)C1CSc2c(-c3cccc(C(F)(F)F)c3)c(Cc3cccc4ccccc34)nc(=O)n21 (stereo not shown) [Compound 022, 7-(naphthalen-1-ylmethyl)-5-oxo-8-(3-(trifluoromethyl)phenyl)-2,3-dihydro-5H-thiazolo[3,2-c]pyrimidine-3-carboxylic acid]",1.3 to 4.5 µM,4.1 µM
"CN(C)Cc1c(Cc2cccc3ccccc23)c(-c2cccc(C(F)(F)F)c2)c2n(c1=O)C(C(=O)O)CS2 (stereo not shown) [Compound 075, 6-((dimethylamino)methyl)-7-(naphthalen-1-ylmethyl)-5-oxo-8-(3-(trifluoromethyl)phenyl)-2,3-dihydro-5H-thiazolo[3,2-a]pyridine-3-carboxylic acid]",4.6 to 10 µM,5.6 µM
